Reference: BindingDB's records for patent US9862711 (Novartis, 2018)

Each molecule was assayed against Phosphatidylinositol 4-kinase beta (Homo sapiens, UniProt Q9UBF8) (assay: Kinase Glo Luminescent Kinase Assay).
Excerpt: PI 3-Kinase Alpha (A), Pb 3-Kinase Beta (B), Vps34 (C), PI 4-Kinase Beta (D):The luminescence-based ATP detection reagent KinaseGlo was obtained from Promega, (Cat. No. V6714, Lot No. 236161) through Catalys, Wallisellen, Switzerland. L-alpha-phosphatidylinositol (PI, liver, bovine) was obtained from Avanti Polar Lipid (Cat. No. 840042C, Lot#LPI-274), Phosphatidylinositol-4,5-bisphosphate (PIP(4,5)2) was also obtained from Avanti Polar Lipid (Cat. No. 840046X). L-α-Phosphatidylserine (PS) was obtained from Avanti Polar Lipid (Cat. No. 840032C), n-Octylglucoside from Avanti Polar Lipid (Cat. No. 10634425001). Luminescence is a well established readout to determine ATP concentrations and can thus be used to follow the activity of many kinases regardless of their substrate. The Kinase Glo Luminescent Kinase Assay (Promega, Madison/WI, USA) is a homogeneous HTS method of measuring kinase activity by quantifying the amount of ATP remaining in solution following a kinase reaction.

Phosphatidylinositol 4-kinase beta, sequence (Q9UBF8 whole entry): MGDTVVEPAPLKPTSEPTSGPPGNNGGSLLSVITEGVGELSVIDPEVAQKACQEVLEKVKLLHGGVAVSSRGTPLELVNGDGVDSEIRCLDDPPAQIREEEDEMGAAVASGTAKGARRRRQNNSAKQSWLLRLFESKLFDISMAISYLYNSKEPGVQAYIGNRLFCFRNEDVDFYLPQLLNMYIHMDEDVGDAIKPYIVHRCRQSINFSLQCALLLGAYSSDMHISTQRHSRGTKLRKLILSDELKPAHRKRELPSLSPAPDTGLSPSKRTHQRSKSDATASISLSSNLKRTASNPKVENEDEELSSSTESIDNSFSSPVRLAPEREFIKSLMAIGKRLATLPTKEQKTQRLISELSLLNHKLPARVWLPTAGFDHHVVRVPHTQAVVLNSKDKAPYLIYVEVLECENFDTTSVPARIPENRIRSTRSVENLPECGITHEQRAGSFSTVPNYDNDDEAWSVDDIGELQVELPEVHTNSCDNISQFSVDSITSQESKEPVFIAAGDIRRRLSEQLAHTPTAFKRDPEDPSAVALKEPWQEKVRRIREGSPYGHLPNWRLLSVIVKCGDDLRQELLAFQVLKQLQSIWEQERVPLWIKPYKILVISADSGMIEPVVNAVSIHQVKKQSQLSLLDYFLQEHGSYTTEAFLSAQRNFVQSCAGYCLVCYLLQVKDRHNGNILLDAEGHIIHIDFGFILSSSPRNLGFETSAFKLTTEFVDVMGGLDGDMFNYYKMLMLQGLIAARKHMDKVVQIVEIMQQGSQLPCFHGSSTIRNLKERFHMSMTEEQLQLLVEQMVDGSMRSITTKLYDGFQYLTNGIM

IC50 [µM] | Structure (SMILES)
> 10 | Cc1ccc(S(=O)(=O)NC2CC3(CC(O)C3)C2)cc1-c1cncc(-c2cn(C)nc2C)n1 (centres undefined) [US9862711, Example 6]
> 10 | Cc1ccc(S(=O)(=O)NC[C@H]2C[C@@H](O)C2)cc1-c1cncc(-c2cn(C)nc2C)n1 [US9862711, Example 7]
> 9.1 | Cc1ccc(S(=O)(=O)N[C@H]2CC[C@H](O)CC2)cc1-c1cncc(-c2csc(CN3CCOCC3)c2)n1 [US9862711, Example 12]
> 9.55 | Cc1cc(-c2cncc(-c3cc(S(=O)(=O)NC[C@H]4C[C@@H](O)C4)ccc3C)n2)n(C)n1 [US9862711, Example 13]
